Test results taken from patent publication US11186585B2 (priority 2018, dated 2021).
Where “and” joins values, the source holds several entries; their conditions need not be identical. Equal values may be shown once. Entries after “also recorded” stand apart in the source; their conditions may differ. Marks after values point to notes of the source that are not given here.

Columns and labels:
Sprague-Dawley rats = assay: Antinociceptive activity, cold ethanol tail-flick test after oral gavage; format: in vivo, rat; settings: for analgesia in rats, in words: given orally, compared with equivalent dose of Nalbuphine (parent opioid); for Analgesia (rat): oral gavage in sesame oil, 60 uM/kg, one dose, tail-flick at −20° C., cutoff 40 seconds
healthy volunteers [1] = assay: Double-blind trial, miosis after oral capsule; format: in vivo, human; settings: for % MPE (miosis): oral, individual data, 33 45 mg, NB 35 mg, 39 68 mg; for effect on pupil dilation (miosis) in humans, in words: oral administration
Experimental: Double-blind, NB hydrochloride and NB-39 controlled, trial of the antinociceptive effect of oral NB-33 in healthy volunteers. Each of the three healthy volunteers was assigned a set of 6 non-transparent gelatin capsules as follows: 2×NB hydrochloride (MW=393.4; 39 mg), 2×NB-33 (MW=451.6; 45 mg) and 2×NB-39 (MW=680.0; 68 mg). Each week a healthy volunteer would receive a pill from the assigned set in a random fashion and take it orally. At T=0 hr, 0.25 hr, 0.5 hr, 1 hr, 1.5 hr, 2 hr, 3 hr and 5 hr followed oral administration a heat pain threshold was measured (hot water at 50° C.) as well as miosis.
(§1) Following one week of a wash out period, each volunteer repeated the protocol until all pills from the assigned set were administered. The individual data for heat pain threshold as % MPE=[(test latency−baseline latency)/(baseline latency)]×100 and for miosis as % MPE=[(test diameter−baseline diameter)/(baseline diameter)]×100 are shown in Table 2 and Table 3 respectively.
(§2) Independent samples t-test was used to compare the means of % MPE analgesia and miosis in the two pairs of samples: NB-33 and NB and NB-33 and NB-39. All analyses were made using SPSS (v.25). • Bold indicates statistical significance at α=0.05

[2] = tested on: Human recombinant opiate receptor (mu, kappa or delta); assay: Human recombinant opiate receptor panel, overall profile in words; format: cell-based; settings: CHO-K1 cells, cAMP
Experimental: (§3) Human recombinant opiate receptor (mu, kappa or delta) expressed in CHO-K1 cells were used. Test compound (NB-33)/or vehicle was incubated with the cells (4×10E5/mL) in modified HBSS pH 7.4 buffer at […] for 30 min. The reaction was evaluated for cAMP levels by TR-FRET. Compounds were screened at 0.3, 1 and 3 uM. by Eurofins Pharma Discovery Services.
as §3, with “(NX-90)/or” for “(NB-33)/or”, “levels (cAMP and/or calcium flux)” for “levels”, “0.1, 0.3 and” for “0.3,”, “uM” for “and 3 uM.”

[3] = Stability in human plasma; settings: 37° C., acceptance criteria: NLT than 20% of hydrolysis after 4 hrs
[4] = Stability in the simulated gastro-intestinal fluid (sGIF); settings: 0.5% pepsine in 0.1N aqueous HCl, 37° C.; acceptance: NLT 80% of the derivative still intact after 4 hrs
rats = assay: Randall-Selitto test after SC dose; format: in vivo, rat; settings: for Randall-Selitto (g), individual animal: NB.HCl 3 mg/kg; for Randall-Selitto (g), individual animal / Randall-Selitto (g), Mean: NB-33.HCl 3.9 mg/kg; for Randall-Selitto (g), Mean: mean of 5, NB.HCl 3 mg/kg
Description: FIG. 13 illustrate in the graphical form the results for 1310 NB-33, marked 1310, in comparison to the base NB compound NB, marked 1320 in FIG. 13.

healthy volunteers [5] = assay: Double-blind trial, heat pain threshold (hot water at 50° C.) after oral capsule; format: in vivo, human; settings: for % MPE (analgesia): oral, individual data, 33 45 mg, NB 35 mg, 39 68 mg; for analgesia in humans, in words: given orally, compared with equivalent dose of Nalbuphine (NB) and NB-39
Experimental: Double-blind, NB hydrochloride and NB-39 controlled, trial of the antinociceptive effect of oral NB-33 in healthy volunteers. […] Each week a healthy volunteer would receive a pill from the assigned set in a random fashion and take it orally. […]
as §1, §2

| Compound | analgesia in rats, in words (Sprague-Dawley rats) | Analgesia (rat) (Sprague-Dawley rats) | % MPE (miosis) (healthy volunteers [1]; 0 hr (baseline)) [% MPE] | % MPE (miosis) (healthy volunteers [1]; 0.25 hr) | % MPE (miosis) (healthy volunteers [1]; 0.5 hr) | % MPE (miosis) (healthy volunteers [1]; 1 hr) | % MPE (miosis) (healthy volunteers [1]; 1.5 hr) | % MPE (miosis) (healthy volunteers [1]; 2 hr) | % MPE (miosis) (healthy volunteers [1]; 2.5 hr) | % MPE (miosis) (healthy volunteers [1]; 3 hr) | % MPE (miosis) (healthy volunteers [1]; 5 hr) | effect on pupil dilation (miosis) in humans, in words (healthy volunteers [1]) | pharmacological profile at opiate receptors, in words [2] | Stable in plasma [3] | Stable in sGIF [4] | % MPE (analgesia) (healthy volunteers [5]; 0 hr (baseline)) [% MPE] | % MPE (analgesia) (healthy volunteers [5]; 0.25 hr) | % MPE (analgesia) (healthy volunteers [5]; 0.5 hr) | % MPE (analgesia) (healthy volunteers [5]; 1 hr) | % MPE (analgesia) (healthy volunteers [5]; 1.5 hr) | further results |
| --- | --- | --- | --- | --- | --- | --- | --- | --- | --- | --- | --- | --- | --- | --- | --- | --- | --- | --- | --- | --- | --- |
| C/C=C/C=C/C(=O)Oc1ccc2c3c1OC1C(O)CCC4(O)C(C2)N(CC2CCC2)CCC314 (stereo not drawn) [NB-33, 3-(cyclobutylmethyl)-4a,7-dihydroxy-2,3,4,4a,5,6,7,7a-octahydro-1H-4,12-methanobenzofuro[3,2-e]isoquinolin-9-yl (2E,4E)-hexa-2,4-dienoate] | excellent and superior results; also recorded: better analgesia than the parent opioid | Excellent | 0.0 | 26.7 % MPE and −8.8 % MPE and 0.3 % MPE and 20.0 % MPE and 0.0 % MPE and −5.0 % MPE | 26.7 % MPE (3×) and 3.4 % MPE and 33.3 % MPE and −6.3 % MPE | 40.4 % MPE (2×) and 24.0 % MPE and 42.2 % MPE and 33.9 % MPE and 26.7 % MPE | 46.2 % MPE and 20.6 % MPE and 36.5 % MPE (2×) and 42.2 % MPE and 33.9 % MPE | 55.9 % MPE and 37.8 % MPE and 46.2 % MPE (2×) and 42.2 % MPE and 42.9 % MPE | 65.7 % MPE and 46.4 % MPE and 63.7 % MPE and 29.5 % MPE and 33.9 % MPE and 46.2 % MPE | 29.0 % MPE and 3.4 % MPE and 36.5 % MPE (2×) and 15.6 % MPE and 25.0 % MPE | 32.1 % MPE and 3.4 % MPE and 36.5 % MPE and 9.3 % MPE and 17.2 % MPE and 33.7 % MPE | superior; also recorded: significant effect | not a pharmacologically inert compound | No | Yes | 0.0 | 0.0 % MPE (2×) and 8.3 % MPE and 3.7 % MPE and 31.3 % MPE and 30.0 % MPE | 19.2 % MPE and 24.0 % MPE and 66.7 % MPE and 48.1 % MPE and 37.5 % MPE (2×) | 100.0 % MPE and 80.0 % MPE and 183.3 % MPE and 59.3 % MPE and 50.0 % MPE and 67.5 % MPE | 115.4 % MPE and 140.0 % MPE and 87.5 % MPE and 114.8 % MPE and 68.8 % MPE and 97.5 % MPE | analgesic properties vs equimolar dose of the parent opioid NB, in words (Graph 1, FIG. 13) (rats; Randall-Selitto, rats): superior analgesic properties; % MPE (analgesia) (healthy volunteers [5]; 2 hr): 111.5 % MPE and 124.0 % MPE and 191.7 % MPE and 185.2 % MPE and 81.3 % MPE and 157.5 % MPE; % MPE (analgesia) (healthy volunteers [5]; 2.5 hr): 119.2 % MPE and 96.0 % MPE and 112.5 % MPE (2×) and 133.3 % MPE and 31.3 % MPE; % MPE (analgesia) (healthy volunteers [5]; 3 hr): 157.7 % MPE and 60.0 % MPE and 45.8 % MPE and 118.5 % MPE and 25.0 % MPE and 27.5 % MPE; % MPE (analgesia) (healthy volunteers [5]; 5 hr): 115.4 % MPE and 24.0 % MPE and 20.8 % MPE and 44.4 % MPE and 18.8 % MPE and 22.5 % MPE; analgesia in humans, in words (healthy volunteers [5]): superior |
| CCCCCCCCCCCCCCCCCCCCCC(=O)Oc1ccc2c3c1OC1C(O)CCC4(O)C(C2)N(CC2CCC2)CCC314 (stereo not drawn) [NB-39, 3-(cyclobutylmethyl)-4a,7-dihydroxy-2,3,4,4a,5,6,7,7a-octahydro-1H-4,12-methanobenzofuro[3,2-e]isoquinolin-9-yl docosanoate] | inferior | Inactive | 0.0 | 10.3 % MPE and 0.0 % MPE and 25.0 % MPE and 12.5 % MPE and 20.0 % MPE and 3.1 % MPE | 14.9 % MPE and 0.0 % MPE and 16.7 % MPE and 9.4 % MPE (2×) and 26.7 % MPE | 37.9 % MPE and 6.7 % MPE and 22.2 % MPE and 18.8 % MPE and 36.7 % MPE and 21.9 % MPE | 37.9 % MPE and 6.7 % MPE and 33.3 % MPE and 21.9 % MPE and 23.3 % MPE and 25.0 % MPE | 14.9 % MPE and 0.0 % MPE and 25.0 % MPE and 17.2 % MPE and 16.7 % MPE and 6.2 % MPE | 14.9 % MPE and 6.7 % MPE and 11.1 % MPE and 6.2 % MPE and 13.3 % MPE and 9.4 % MPE | 24.1 % MPE and 0.0 % MPE (3×) and 11.1 % MPE and 3.3 % MPE | 3.4 % MPE and 0.0 % MPE (2×) and 11.1 % MPE and 13.3 % MPE and 3.1 % MPE | did not significantly affect |  | No | Yes | 0.0 | 0.0 % MPE (2×) and 17.6 % MPE and 13.3 % MPE and 6.2 % MPE and 8.3 % MPE | 10.0 % MPE and 11.8 % MPE and 40.0 % MPE and 6.2 % MPE and 55.6 % MPE and 15.0 % MPE | 10.0 % MPE and 5.9 % MPE and 73.3 % MPE and 10.8 % MPE and 11.1 % MPE and 5.0 % MPE | 15.0 % MPE and 11.8 % MPE and 93.3 % MPE and −7.7 % MPE and 19.4 % MPE and 5.0 % MPE | % MPE (analgesia) (healthy volunteers [5]; 2 hr): 10.0 % MPE and 23.5 % MPE and 93.3 % MPE and 33.8 % MPE and 0.0 % MPE (2×); % MPE (analgesia) (healthy volunteers [5]; 2.5 hr): 5.0 % MPE (2×) and 0.0 % MPE and 46.7 % MPE and −6.2 % MPE and 16.7 % MPE; % MPE (analgesia) (healthy volunteers [5]; 3 hr): 10.0 % MPE and 11.8 % MPE and 40.0 % MPE and 9.2 % MPE and 0.0 % MPE (2×); % MPE (analgesia) (healthy volunteers [5]; 5 hr): 0.0 % MPE (2×) and 6.7 % MPE and −9.2 % MPE and −2.8 % MPE and 5.0 % MPE; analgesia in humans, in words (healthy volunteers [5]): inferior |
| C/C=C/C=C/C(=O)Oc1ccc2c3c1OC1C(O)CCC4(O)C(C2)N(CC2CCC2)CCC314.Cl (stereo not drawn) [NB-56, 3-(cyclobutylmethyl)-9-(((2E,4E)-hexa-2,4-dienoyl)oxy)-4a,7-dihydroxy-2,3,4,4a,5,6,7,7a-octahydro-1H-4,12-methanobenzofuro[3,2-e]isoquinolin-3-ium chloride] |  | No |  |  |  |  |  |  |  |  |  |  |  | No | Yes |  |  |  |  |  | Randall-Selitto (g), individual animal (rats; Post-dose 0.5 hr): 121 g and 120 g and 207 g and 161 g and 96 g; Randall-Selitto (g), Mean (rats; Post-dose 0.5 hr): 141.0* g; Randall-Selitto (g), individual animal (rats; Post-dose 1 hr): 98 g and 103 g and 199 g and 73 g and 86 g; Randall-Selitto (g), Mean (rats; Post-dose 1 hr): 111.8 g; Randall-Selitto (g), individual animal (rats; Post-dose 2 hr): 99 g and 94 g and 214 g and 102 g and 85 g; Randall-Selitto (g), Mean (rats; Post-dose 2 hr): 118.8 g; Randall-Selitto (g), individual animal (rats; Post-dose 4 hr): 83 g and 71 g and 136 g and 63 g and 97 g; Randall-Selitto (g), Mean (rats; Post-dose 4 hr): 90.0 g; Randall-Selitto (g), individual animal (rats; Post-dose 6 hr): 79 g and 64 g and 101 g and 65 g and 85 g; Randall-Selitto (g), Mean (rats; Post-dose 6 hr): 78.8 g; Randall-Selitto (g), individual animal (rats; Pre-treatment (baseline)): 93 g and 82 g and 98 g and 80 g and 96 g; Randall-Selitto (g), Mean (rats; Pre-treatment (baseline)): 89.8 g |
| C=CCN1CCC23c4c5ccc(OC(=O)/C=C/C=C/C)c4OC2C(=O)CCC3(O)C1C5 (stereo not drawn) [NX-90, 3-allyl-4a-hydroxy-7-oxo-2,3,4,4a,5,6,7,7a-octahydro-1H-4,12-methanobenzofuro[3,2-e]isoquinolin-9-yl (2E,4E)-hexa-2,4-dienoate] |  |  |  |  |  |  |  |  |  |  |  |  | not a pharmacologically inert compound |  |  |  |  |  |  |  |  |
